Assay results: ChEMBL document CHEMBL4431352, “Structure-activity relationship of Garcinia xanthones analogues: Potent Hsp90 inhibitors with cytotoxicity and antiangiogenesis activity” (Bioorg Med Chem, 2016)
Calls of active or inactive are those of the source. The rule behind the calls is not given here.

Experiments:
[1] = target: T1, Heat shock protein HSP 90-alpha (Homo sapiens, UniProt P07900); test: Inhibition of 6x-His tagged human recombinant full length Hsp90alpha ATPase preincubated for 0.5 hrs followed by ATP addition measured after 30 mins by HTRF assay
HUVEC [2] = test: Antiangiogenic activity against inactivated HUVEC assessed as inhibition of tube formation at 0.25 uM incubated for 6 hrs by matrigel assay; type: functional, cell-based; conditions: Homo sapiens
SK-BR-3 [3] = test: Induction of apoptosis in human SK-BR-3 cells assessed as late apoptotic cells at 1 uM after 48 hrs by annexin v/PI-staining based flow cytometry (reference value: 6.2%); type: functional
[4] = target: T1, Heat shock protein HSP 90-alpha; test: Binding affinity to human recombinant full length Hsp90alpha assessed as change in melting temperature at 500 uM by fluorescence assay
SK-BR-3 [5] = test: Induction of apoptosis in human SK-BR-3 cells assessed as dead cells after 48 hrs by annexin v/PI-staining based flow cytometry (Rvb =1.3%); type: functional, cell-based
HUVEC [6] = test: Antiangiogenic activity against HUVEC assessed as inhibition of VEGF-induced cell migration incubated for 24 hrs by wound healing assay; type: functional, cell-based; conditions: Homo sapiens
A549 = test: Antiproliferative activity against human A549 cells assessed as growth inhibition by MTT assay; type: functional, cell-based
SK-BR-3 [7] = test: Induction of apoptosis in human SK-BR-3 cells assessed as live cells at 0.5 uM after 48 hrs by annexin v/PI-staining based flow cytometry (reference value: 89.2%); type: functional
[8] = target: T2, Heat shock protein HSP90 (Homo sapiens) (UniProt P07900+P08238); test: Inhibition of Hsp90 in HUVEC assessed as repression of 1% hypoxia-induced VEGF mRNA expression at 0.1 uM measured over 8 hrs by RT-PCR analysis; type: cell-based
[9] = target: T1, Heat shock protein HSP 90-alpha; test: Binding affinity to human recombinant full length Hsp90alpha assessed as change in melting temperature at 1 mM by fluorescence assay
SK-BR-3 [10] = test: Induction of apoptosis in human SK-BR-3 cells assessed as late apoptotic cells after 48 hrs by annexin v/PI-staining based flow cytometry (reference value: 6.2%); type: functional, cell-based
SK-BR-3 [11] = test: Induction of apoptosis in human SK-BR-3 cells assessed as dead cells at 1 uM after 48 hrs by annexin v/PI-staining based flow cytometry (Rvb =1.3%); type: functional
[12] = target: T2, Heat shock protein HSP90 (Homo sapiens); test: Inhibition of Hsp90 in human SK-BR-3 cells assessed as upregulation of Hsp70 at 0.02 to 0.2 uM after 24 hrs by Western blot analysis; type: cell-based
[13] = target: T2, Heat shock protein HSP90 (Homo sapiens); test: Inhibition of Hsp90 in human SK-BR-3 cells assessed as downregulation of Akt after 24 hrs by Western blot analysis; type: cell-based
SK-BR-3 [14] = test: Induction of apoptosis in human SK-BR-3 cells assessed as nuclear condensation at 0.25 to 1 uM after 48 hrs by DAPI staining-based fluorescence analysis; type: functional, cell-based
SK-BR-3 [15] = test: Induction of cell morphological changes in human SK-BR-3 cells assessed as cell distortion at 0.25 to 1 uM after 48 hrs by DAPI staining-based fluorescence analysis; type: functional
SK-BR-3 [16] = test: Induction of cell morphological changes in human SK-BR-3 cells assessed as cell membrane blebbing at 0.25 to 1 uM after 48 hrs by DAPI staining-based fluorescence analysis; type: functional
[17] = target: T1, Heat shock protein HSP 90-alpha; test: Binding affinity to human recombinant full length biotinylated Hsp90alpha assessed as equilibrium dissociation constants by biolayer interferometric analysis
SK-BR-3 [18] = test: Induction of apoptosis in human SK-BR-3 cells assessed as live cells after 48 hrs by annexin v/PI-staining based flow cytometry (reference value: 89.2%); type: functional, cell-based
MCF7 = test: Antiproliferative activity against human MCF7 cells assessed as growth inhibition by MTT assay; type: functional, cell-based
SK-BR-3 [19] = test: Induction of apoptosis in human SK-BR-3 cells after 48 hrs by annexin V/PI-staining based flow cytometry; type: functional, cell-based
SK-BR-3 [20] = test: Induction of apoptosis in human SK-BR-3 cells assessed as live cells at 0.25 uM after 48 hrs by annexin v/PI-staining based flow cytometry (reference value: 89.2%); type: functional
[21] = target: T1, Heat shock protein HSP 90-alpha; test: Binding affinity to human recombinant full length Hsp90alpha assessed as change in melting temperature at 125 uM by fluorescence assay
[22] = target: T1, Heat shock protein HSP 90-alpha; test: Binding affinity to human recombinant full length Hsp90alpha assessed as change in melting temperature at 250 uM by fluorescence assay
SK-BR-3 [23] = test: Induction of apoptosis in human SK-BR-3 cells assessed as late apoptotic cells at 0.5 uM after 48 hrs by annexin v/PI-staining based flow cytometry (reference value: 6.2%); type: functional
SK-BR-3 [24] = test: Induction of apoptosis in human SK-BR-3 cells assessed as early apoptotic cells after 48 hrs by annexin v/PI-staining based flow cytometry (reference value: 3.3%); type: functional, cell-based
HepG2 = test: Antiproliferative activity against human HepG2 cells assessed as growth inhibition by MTT assay; type: functional, cell-based
SK-BR-3 [25] = test: Induction of apoptosis in human SK-BR-3 cells assessed as increase in caspase activity after 48 hrs by fluorimetric assay; type: functional, cell-based
SK-BR-3 [26] = test: Induction of apoptosis in human SK-BR-3 cells assessed as early apoptotic cells at 0.5 uM after 48 hrs by annexin v/PI-staining based flow cytometry (reference value: 3.3%); type: functional
SK-BR-3 [27] = test: Induction of apoptosis in human SK-BR-3 cells assessed as early apoptotic cells at 0.25 uM after 48 hrs by annexin v/PI-staining based flow cytometry (reference value: 3.3%); type: functional
SK-BR-3 [28] = test: Induction of apoptosis in human SK-BR-3 cells assessed as live cells at 1 uM after 48 hrs by annexin v/PI-staining based flow cytometry (reference value: 89.2%); type: functional
HT-29 = test: Antiproliferative activity against human HT-29 cells assessed as growth inhibition by MTT assay; type: functional, cell-based
SK-BR-3 [29] = test: Induction of apoptosis in human SK-BR-3 cells assessed as late apoptotic cells at 0.25 uM after 48 hrs by annexin v/PI-staining based flow cytometry (reference value: 6.2%); type: functional
SK-BR-3 [30] = test: Induction of apoptosis in human SK-BR-3 cells assessed as dead cells at 0.5 uM after 48 hrs by annexin v/PI-staining based flow cytometry (Rvb =1.3%); type: functional
SK-BR-3 [31] = test: Induction of apoptosis in human SK-BR-3 cells assessed as early apoptotic cells at 1 uM after 48 hrs by annexin v/PI-staining based flow cytometry (reference value: 3.3%); type: functional
[32] = target: T2, Heat shock protein HSP90 (Homo sapiens); test: Inhibition of Hsp90 in human SK-BR-3 cells assessed as downregulation of ERK1/2 after 24 hrs by Western blot analysis; type: cell-based
PC-3 = test: Antiproliferative activity against human PC3 cells assessed as growth inhibition by MTT assay; type: functional, cell-based
SK-BR-3 [33] = test: Antiproliferative activity against human SK-BR-3 cells assessed as growth inhibition by MTT assay; type: functional, cell-based
[34] = target: T2, Heat shock protein HSP90 (Homo sapiens); test: Inhibition of Hsp90 in HUVEC assessed as repression of 1% hypoxia-induced Glut1 mRNA expression at 0.1 uM measured over 8 hrs by RT-PCR analysis; type: cell-based
[35] = target: T2, Heat shock protein HSP90 (Homo sapiens); test: Inhibition of Hsp90 in HUVEC assessed as downregulation of 1% hypoxia-induced HIF-1alpha expression measured over 8 hrs by Western blot analysis; type: cell-based
SK-BR-3 [36] = test: Induction of cell morphological changes in human SK-BR-3 cells assessed as cell shrinkage at 0.25 to 1 uM after 48 hrs by DAPI staining-based fluorescence analysis; type: functional
[37] = target: T2, Heat shock protein HSP90 (Homo sapiens); test: Inhibition of Hsp90 in HUVEC assessed as repression of 1% hypoxia-induced […] mRNA expression at 0.1 uM measured over 8 hrs by RT-PCR analysis; type: cell-based
SK-BR-3 [38] = test: Induction of apoptosis in human SK-BR-3 cells assessed as dead cells at 0.25 uM after 48 hrs by annexin v/PI-staining based flow cytometry (Rvb =1.3%); type: functional
SK-BR-3 [39] = test: Induction of apoptosis in human SK-BR-3 cells assessed as apoptotic body formation at 0.25 to 1 uM after 48 hrs by DAPI staining-based fluorescence analysis; type: functional, cell-based

CC(C)=CCC12OC(C)(C)C3CC(C=C4C(=O)c5c(O)cc(O)cc5OC431)C2=O (stereo not given)
IC50 [1]: 22.4 µM

C/C(=C\CC12OCC3CC(C=C4C(=O)c5c(O)cccc5OC431)C2=O)CCl (stereo not given)
IC50 [1]: 6.2 µM

CC(C)=CCC12OCC3CC(C=C4C(=O)c5ccccc5OC431)C2=O (stereo not given)
IC50 [1]: 35.2 µM

C/C(=C\CC12OCC3CC(C=C4C(=O)c5c(O)cccc5OC431)C2=O)CO (stereo not given)
inhibition (HUVEC [2]): Active
Activity (SK-BR-3 [3]): 35.7%
ΔTm [4]: 2.12 °C
Activity (SK-BR-3 [5]): Dose-dependent effect
Activity (HUVEC [6]): Dose-dependent effect
IC50 (A549): 3.25 µM
Activity (SK-BR-3 [7]): 59.58%
inhibition [8]: Active
ΔTm [9]: 4.7 °C
Activity (SK-BR-3 [10]): Dose-dependent effect
Activity (SK-BR-3 [11]): 5.7%
IC50 [1]: 3.68 µM
inhibition [12]: inactive
inhibition [13]: Dose-dependent effect
Activity (SK-BR-3 [14]): Active
Activity (SK-BR-3 [15]): Active
Activity (SK-BR-3 [16]): Active
Kd [17]: 38 µM
Activity (SK-BR-3 [18]): Dose-dependent effect
IC50 (MCF7): 2.89 µM
Activity (SK-BR-3 [19]): Dose-dependent effect
Activity (SK-BR-3 [20]): 78.15%
ΔTm [21]: 0.95 °C
ΔTm [22]: 1.64 °C
Activity (SK-BR-3 [23]): 21.45%
Activity (SK-BR-3 [24]): Dose-dependent effect
IC50 (HepG2): 3.34 µM
Activity (SK-BR-3 [25]): Dose-dependent effect
Activity (SK-BR-3 [26]): 16.65%
Activity (SK-BR-3 [27]): 7.5%
Activity (SK-BR-3 [28]): 50%
IC50 (HT-29): 3.02 µM
Activity (SK-BR-3 [29]): 13.4%
Activity (SK-BR-3 [30]): 2.35%
Activity (SK-BR-3 [31]): 8.6%
inhibition [32]: Dose-dependent effect
IC50 (PC-3): 2.16 µM
IC50 (SK-BR-3 [33]): 1.92 µM
inhibition [34]: Active
inhibition [35]: Dose-dependent effect
Activity (SK-BR-3 [36]): Active
inhibition [37]: Active
Activity (SK-BR-3 [38]): 0.95%
Activity (SK-BR-3 [39]): Active

C/C(=C\CC12OCC3CC(C1=O)C1OC14C(=O)c1c(O)cccc1OC324)CC=O (stereo not given)
IC50 [1]: 36.6 µM

C/C(=C\CC12OC(C)(C)C3CC(C=C4C(=O)c5c(O)cccc5OC431)C2=O)CCl (stereo not given)
IC50 [1]: 15.3 µM

CC(C)=CCC[C@]1(C)C=Cc2c(O)c3c(c(CC=C(C)C)c2O1)O[C@]12C(=C[C@@H]4C[C@H]1C(C)(C)O[C@@]2(C/C=C(/C)C(=O)O)C4=O)C3=O [GAMBOGIC ACID]
IC50 (A549): 1.2 µM
IC50 [1]: 22 µM
IC50 (MCF7): 1.25 µM
IC50 (HepG2): 2.19 µM
IC50 (HT-29): 2.37 µM
IC50 (PC-3): 1.19 µM
IC50 (SK-BR-3 [33]): 0.89 µM

CCOC(=O)COc1cccc2c1C(=O)C1=CC3CC4C(C)(C)OC(CC=C(C)C)(C3=O)C14O2 (stereo not given)
IC50 [1]: 89.8 µM

COc1cccc2c1C(=O)C1=CC3CC4COC(CC=C(C)C)(C3=O)C14O2 (stereo not given)
IC50 [1]: 54.7 µM

CC(=O)Oc1cccc2c1C(=O)C1=CC3CC4C(C)(C)OC(CC=C(C)C)(C3=O)C14O2 (stereo not given)
IC50 [1]: 42.4 µM

CC(C)=CCC12OC(C)(C)C3CC(C=C4C(=O)c5c(cccc5OS(C)(=O)=O)OC431)C2=O (stereo not given)
IC50 [1]: 67.1 µM
